Source: patent US11046716B2, “Beta-lactamase inhibitors” (priority 2015, dated 2021)
pIC50: −log10 of the molar value.

What was measured:
[1] = test system: E. coli expressing the Class A Extended Spectrum Beta-Lactamase (ESBL) CTX-M-15; experiment: Broth microdilution MIC assay with ceftazidime, E. coli CTX-M-15; type: cell-based; conditions: Fixed CAZ (ceftazidime) 4 μg/mL; E. coli ESBL4 CTX-M-15
Outline: (§1)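 CAMHB; cpd 2-fold serial dilution, 16–0.125 μg/mL final; β-lactam static 4 μg/ml; CLSI inoculation; 16–20 h, 37° C; MIC read by eye.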

KPC-2 = target: T1, KPC-2 (Klebsiella pneumoniae, UniProt Q9F663); experiment: β-lactamase enzyme inhibition assay, KPC-2 (imipenem substrate); type: biochemical; conditions: Class A; imipenem substrate, 300 nm; read-out: KPC-2
T1 construct: made in house; host or cells: E. coli BL21(DE3)
T1 sequence (Q9F663 25-293, looked up): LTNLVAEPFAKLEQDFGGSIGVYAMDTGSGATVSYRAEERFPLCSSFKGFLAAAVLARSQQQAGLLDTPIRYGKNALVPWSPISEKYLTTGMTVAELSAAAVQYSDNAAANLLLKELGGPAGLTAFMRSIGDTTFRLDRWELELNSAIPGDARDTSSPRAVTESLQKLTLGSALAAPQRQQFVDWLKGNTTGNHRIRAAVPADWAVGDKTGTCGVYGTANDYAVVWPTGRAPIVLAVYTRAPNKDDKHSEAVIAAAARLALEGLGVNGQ
Outline: (§2)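 IC50 is the inhibitor level cutting initial substrate hydrolysis rate by 50% relative to no-inhibitor controls, after 15 min enzyme–inhibitor preincubation at 37 °C. KPC-2 read with imipenem at 300 nm, SHV-5 with cefotaxime at 260 nm; enzymes were untagged, E. coli-expressed, chromatographically purified.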

[2] = test system: K. pneumoniae expressing the class A carbapenemase KPC-2 and the class B carbapenemase VIM-4; experiment: Broth microdilution MIC assay with meropenem, K. pneumoniae KPC-2 and VIM-4; type: cell-based; conditions: Fixed Mero (meropenem) 4 μg/mL; K. p. A-1797 KPC-2 VIM-4
Outline: as §1

[3] = test system: K. pneumoniae producing the Class D carbapenemase OXA-48; experiment: Broth microdilution MIC assay with meropenem, K. pneumoniae OXA-48; type: cell-based; conditions: Fixed Mero (meropenem) 4 μg/mL; K. p. 11978 OXA-48
Outline: as §1

[4] = test system: K. pneumoniae expressing the Class A carbapenemase KPC-2; experiment: Broth microdilution MIC assay with meropenem, K. pneumoniae KPC-2; type: cell-based; conditions: Fixed Mero (meropenem) 4 μg/mL; K. p. 156319 KPC-3
Outline: as §1

SHV-5 = target: T2, SHV-5 (Klebsiella pneumoniae, UniProt P0A3M1); experiment: β-lactamase enzyme inhibition assay, SHV-5 (cefotaxime substrate); type: biochemical
T2 construct: made in house; host or cells: E. coli BL21(DE3)
T2 sequence (P0A3M1 22-286): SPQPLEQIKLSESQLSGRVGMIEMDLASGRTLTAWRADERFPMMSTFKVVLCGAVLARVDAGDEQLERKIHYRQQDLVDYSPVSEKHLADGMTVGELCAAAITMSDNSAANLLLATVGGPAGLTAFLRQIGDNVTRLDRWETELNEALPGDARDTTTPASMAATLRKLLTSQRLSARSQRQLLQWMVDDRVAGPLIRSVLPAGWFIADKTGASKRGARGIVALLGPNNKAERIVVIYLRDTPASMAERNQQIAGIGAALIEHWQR
Outline: as §2

OXA-48 = OXA-48 (UniProt Q6XEC0); experiment: β-lactamase enzyme inhibition assay, Class D oxacillinase; type: biochemical; conditions: read-out: OXA-48
VIM-2 = target: T3, VIM-2 (Escherichia coli, UniProt Q5U7L7); experiment: β-lactamase enzyme inhibition assay, VIM-2 (nitrocefin substrate); type: biochemical; conditions: Class B; nitrocefin substrate, 486 nm; read-out: VIM-2
T3 construct: made in house; host or cells: E. coli BL21(DE3)
Outline: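 Enzyme + inhibitor, 37 °C, 15 min; nitrocefin 100 μM final; A486 read for 10 min. % inhibition vs no-inhibitor wells per concentration; IC50 = concentration halving initial hydrolysis rate.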

[5] = test system: E. cloacae expressing the Class C P99; experiment: Broth microdilution MIC assay with ceftazidime, E. cloacae P99; type: cell-based; conditions: Fixed CAZ (ceftazidime) 4 μg/mL; E. cl. 144200 p99 AmpC
Outline: as §1

[6] = test system: P. aeruginosa expressing the Class B carbapenemase VIM-2; experiment: Broth microdilution MIC assay with meropenem, P. aeruginosa VIM-2; type: cell-based; conditions: Fixed Mero (meropenem) 4 μg/mL; P. aerug. 2775 VIM-2
Outline: as §1

AmpC = target: T4, AmpC (Enterobacter cloacae, UniProt P05364); experiment: β-lactamase enzyme inhibition assay, p99 AmpC (nitrocefin substrate); type: biochemical
T4 construct: made in house; host or cells: E. coli BL21(DE3)
T4 sequence (P05364 21-381): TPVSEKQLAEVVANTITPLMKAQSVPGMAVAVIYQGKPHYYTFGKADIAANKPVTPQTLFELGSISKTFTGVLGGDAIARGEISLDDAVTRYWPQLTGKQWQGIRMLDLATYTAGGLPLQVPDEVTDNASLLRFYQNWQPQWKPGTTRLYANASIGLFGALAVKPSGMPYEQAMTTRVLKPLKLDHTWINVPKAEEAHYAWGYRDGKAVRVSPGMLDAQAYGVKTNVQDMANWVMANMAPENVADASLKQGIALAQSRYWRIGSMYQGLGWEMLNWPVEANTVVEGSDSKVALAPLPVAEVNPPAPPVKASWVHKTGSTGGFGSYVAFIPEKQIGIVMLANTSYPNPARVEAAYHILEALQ
Outline: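 IC50 is the inhibitor level cutting initial substrate hydrolysis rate by 50% relative to no-inhibitor controls, after 15 min enzyme–inhibitor preincubation at 37 °C. enzymes were untagged, E. coli-expressed, chromatographically purified.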

SMILES | MIC (μg/mL) of Exemplary Compounds in presence of fixed β-lactams: E. coli ESBL4 CTX-M-15 [1] | pIC50 (KPC-2) | MIC (μg/mL) of Exemplary Compounds in presence of fixed β-lactams: K. p. A-1797 KPC-2 VIM-4 [2] | MIC (μg/mL) of Exemplary Compounds in presence of fixed β-lactams: K. p. 11978 OXA-48 [3] | MIC (μg/mL) of Exemplary Compounds in presence of fixed β-lactams: K. p. 156319 KPC-3 [4] | pIC50 (SHV-5) | pIC50 (OXA-48) | pIC50 (VIM-2) | MIC (μg/mL) of Exemplary Compounds in presence of fixed β-lactams: E. cl. 144200 p99 AmpC [5] | MIC (μg/mL) of Exemplary Compounds in presence of fixed β-lactams: P. aerug. 2775 VIM-2 [6] | pIC50 (AmpC)
O=C(Cc1nnn(C2CNC2)n1)N[C@H]1Cc2cccc(C(=O)O)c2OB1O [Example 100, (R)-3-(2-(2-(azetidin-3-yl)-2H-tetrazol-5-yl)acetamido)-2-hydroxy-3,4-dihydro-2H-benzo[e][1,2]oxaborinine-8-carboxylic acid] | C (C represents an MIC of <1 μg/mL) | 6.00 to 7.00 | B (B represents an MIC between 1 and 16 μg/mL inclusive) | C (C represents an MIC of <1 μg/mL) | C (C represents an MIC of <1 μg/mL) | > 7.00 | > 7.00 | > 7.00 | C (C represents an MIC of <1 μg/mL) | C (C represents an MIC of <1 μg/mL) | > 7.00
O=C(Cc1nnnn1CCF)N[C@H]1Cc2cccc(C(=O)O)c2OB1O [Example 101, (R)-3-(2-(1-(2-fluoroethyl)-1H-tetrazol-5-yl)acetamido)-2-hydroxy-3,4-dihydro-2H-benzo[e][1,2]oxaborinine-8-carboxylic acid] | C (C represents an MIC of <1 μg/mL) | > 7.00 | B (B represents an MIC between 1 and 16 μg/mL inclusive) | C (C represents an MIC of <1 μg/mL) | B (B represents an MIC between 1 and 16 μg/mL inclusive) | > 7.00 | > 7.00 | 6.00 to 7.00 | C (C represents an MIC of <1 μg/mL) | C (C represents an MIC of <1 μg/mL) | > 7.00
NCCc1nnnn1CC(=O)N[C@H]1Cc2cccc(C(=O)O)c2OB1O [Example 102, (R)-3-(2-(5-(2-aminoethyl)-1H-tetrazol-1-yl)acetamido)-2-hydroxy-3,4-dihydro-2H-benzo[e][1,2]oxaborinine-8-carboxylic acid] | C (C represents an MIC of <1 μg/mL) | > 7.00 | B (B represents an MIC between 1 and 16 μg/mL inclusive) | B (B represents an MIC between 1 and 16 μg/mL inclusive) | B (B represents an MIC between 1 and 16 μg/mL inclusive) | 6.00 to 7.00 | 6.00 to 7.00 | > 7.00 | C (C represents an MIC of <1 μg/mL) | C (C represents an MIC of <1 μg/mL) | > 7.00
NCCc1nnn(CC(=O)N[C@H]2Cc3cccc(C(=O)O)c3OB2O)n1 [Example 103, (R)-3-(2-(5-(2-aminoethyl)-2H-tetrazol-2-yl)acetamido)-2-hydroxy-3,4-dihydro-2H-benzo[e][1,2]oxaborinine-8-carboxylic acid] | C (C represents an MIC of <1 μg/mL) | > 7.00 | B (B represents an MIC between 1 and 16 μg/mL inclusive) | B (B represents an MIC between 1 and 16 μg/mL inclusive) | C (C represents an MIC of <1 μg/mL) | 6.00 to 7.00 | 6.00 to 7.00 | 6.00 to 7.00 | C (C represents an MIC of <1 μg/mL) | C (C represents an MIC of <1 μg/mL) | > 7.00
